Data published in patent publication US9902986B2, “Enterobactin conjugates and uses thereof” (Massachusetts Institute of Technology, priority 2013, dated 2018).

Test system: S. aureus ATCC 25923
Test: Antibacterial activity assay, S. aureus
Assay type: cell-based, Staphylococcus aureus
Conditions: iron limitation (200 μM 2,2′-dipyridyl)
Method: No antibiotic marker was included in these cultures. […] Bacterial growth was determined by measuring OD600 using a BIOTEK SYNERGY HT plate reader. Each well condition was prepared in duplicate, and at least three independent replicates were conducted on different days. The resulting mean OD600 are reported and the error bars are the standard deviation.
Ampicillin and amoxicillin are β-lactam antibiotics that have periplasmic targets in Gram-negative bacteria and inhibit cell wall biosynthesis. The antibacterial activity of Ent-ampicillin and Ent-amoxicillin conjugates 44 and 45 was evaluated in vitro against a panel of Gram-negative and positive-bacteria. FIG. 6 provides exemplary results from antibacterial activity assays against select bacterial species that include non-pathogenic and pathogenic E. coli strains and also Staphylococcus aureus. Under conditions of iron limitation (200 μM 2,2′-dipyridyl), the conjugates provide 100- to 1000-fold improved activity against various E. coli strains, including human pathogens, compared to the unmodified antibiotics.

| SMILES | enhancement of activity compared to the unmodified antibiotics |
| --- | --- |
| CC1(C)SC2C(NC(=O)C(NC(=O)CCCc3cn(CCOCCOCCOCCNC(=O)c4cc(O)c(O)c(C(=O)NC5COC(=O)C(NC(=O)c6cccc(O)c6O)COC(=O)C(NC(=O)c6cccc(O)c6O)COC5=O)c4)nn3)c3ccc(O)cc3)C(=O)N2C1C(=O)O (stereo not drawn) [Ent-Amx] | no enhancement of activity |
| CC1(C)SC2C(NC(=O)C(NC(=O)CCCc3cn(CCOCCOCCOCCNC(=O)c4cc(O)c(O)c(C(=O)NC5COC(=O)C(NC(=O)c6cccc(O)c6O)COC(=O)C(NC(=O)c6cccc(O)c6O)COC5=O)c4)nn3)c3ccccc3)C(=O)N2C1C(=O)O (stereo not drawn) [Ent-Amp] | no enhancement of activity |
